Results as given in patent US12594257B2, “Means and methods for improving anti-tumoral efficacy of transmembrane channel protein blockers” (ARDAN PHARMA S.A.S., priority 2021, dated 2026).
Entries after “also recorded” stand apart in the source; their conditions may differ. Like-named read-outs stand apart in the source and are kept apart here.

What was measured:
[1] = mouse, in vivo; cited from earlier work
[2] = test system: L-type voltage-gated Ca2+ channels; conditions: cited from earlier work
[3] = test system: E.G7-OVA thymic lymphoma; experiment: Therapeutic treatment of established E.G7-OVA tumors, intratumoral injection; format: in vivo, mouse; conditions: WT mice, established EG7 tumors, i.t. 70 nmoles every two days, five injections; vs eNPs or vehicle
Procedure: Tumor Models and Treatments: WT and Tmem176b^−/− C57BL/6 mice were injected s.c with 0.5×10^6 E.G7-OVA thymic lymphoma cells. At the indicated experiment, injection was performed alternating one Tmem176b and one Tmem176b^−/− mouse until completing both groups. In treated animals, alternation was done between (+)-BayK8644- and vehicle-treated animals or NP-BayK8644 and eNP-treated animals. Tumor growth was caliper measured manually every 2-3 days, and the two major diameters were taken. 70 nmoles of free (+)-BayK8644 or (+)-BayK8644 encapsulated in chitosan nanoparticles, or the same amount of empty NPs injections were repeated at the +2, +4, +6, +8 days after the first injection. Mice were sacrificed when one of the major tumor diameters reached 2 cm.
WT and Tmem176b^−/− animals were inoculated with EG7 tumors. Once tumors reached 25 mm^2, animals were i.t. injected with 70×10^−9 moles of (+)-BayK8644, NP-PEG-BayK8644 or eNP-PEG. Treatments were repeated every two days reaching a total of five injections. Mice were euthanized when the longer diameter reached tumors reached […].

[4] = test system: murine cancer models; conditions: cited from earlier work; for Tumor growth, preventive protocol: before tumor establishment
[5] = test system: CD11c+ splenic DCs; experiment: Antigen cross-presentation assay in mouse splenic dendritic cells (B3Z T cell activation, β-galactosidase readout); format: cell-based
Procedure: Antigen cross-presentation assays in mouse splenic dendritic cells: To obtain splenic DCs, spleen of C57BL/6 mice was extracted, cut into small pieces and treated with collagenase-D (Roche, Merck). After 30 minutes of incubation at 37° C., the enzymatic reaction was stopped with a 10 mM EDTA solution. Lysis of red blood cells was performed with an ammonium chloride solution. Finally, cells were washed with PBS/SFB1%. […] Briefly, splenic cells were labeled with anti-CD11c antibodies conjugated to the beads. The cells were allowed to pass through a magnetic column subjected to a magnetic field. Thereby, CD11c^+ cells were retained on the column. […]
CD11c^+ spleen cells were incubated with 3 mg/mL of soluble OVA, or OVA plus 20 μM of free (+)-BayK8644, 20 μM of (+)-BayK8644 encapsulated into chitosan nanoparticles (NP-BayK8644) or empty counterpart (eNP) for 4 hours in supplemented-RPMI medium. […] The activation of B3Z cell line was measured detecting β-galactosidase activity by optical density (absorbance at 595-655 nm) using chlorophenol red-β-D-galactopyranoside (CPRG; Roche) as substrate for the reaction.
(+)-BayK8644 inhibits antigen cross-presentation by splenic DCs in vitro: We first studied whether (+)-BayK8644 inhibits antigen cross-presentation in vitro. […] B3Z T cell activation was measured by assessing β-galactosidase activity in a colorimetric assay. […]

| SMILES | Toxicities in mice [1] | Effect on L-type Ca++ channels [2] | Mouse survival [3] | Tumor growth [3] | Tumor growth, preventive protocol [4] | Tumor growth, preventive protocol ([4]; listed as BayK8644) | Caspase-1 activation in the TDLN ([4]; i.p) | Tumor growth, therapeutic protocol ([4]; mice bearing established tumors) | B3Z T cell activation by DCs loaded with OVA protein (cross-presentation) ([5]; 3 mg/ml soluble OVA 4 hours, 10 μM or 20 μM) | B3Z T cell activation by DCs loaded with OVA peptide SIINFEKL ([5]; SIINFEKL 45 minutes, 20 μM) |
| --- | --- | --- | --- | --- | --- | --- | --- | --- | --- | --- |
| COC(=O)C1=C(C)NC(C)=C([N+](=O)[O-])C1c1ccccc1C(F)(F)F (single isomer, unassigned; (+)) [(+)-BayK8644] | not associated with toxicities | inhibitor | failed | failed to control tumor growth | controlled tumor growth; also recorded: controlled its growth | controlled tumor growth | increased Caspase-1 activation | failed to do so | significantly decreased their capacity to activate B3Z cells | did not inhibit activation of B3Z cells |
| COC(=O)C1=C(C)NC(C)=C([N+](=O)[O-])C1c1ccccc1C(F)(F)F (single isomer, unassigned; (-)) [(−)-BayK8644] | – | agonists | – | – | – | – | – | – | – | – |
